# pIC50: −log10 of the molar value.
# System: HepG2
# Experiment: cells
# Details: Homo sapiens, HepG2, 24 h
# Description: Antiproliferative activity against human HepG2 cells after 24 hrs by MTT assay
row,pIC50,Structure (SMILES)
1,5.72,CCOC(=O)N/C=C/C(=O)c1cccc(NC(=S)Nc2ccc(S(=O)(=O)Nc3ccccn3)cc2)c1
2,5.54,O=C(/C=C/Nc1ccccc1O)c1cccc(NC(=S)Nc2ccc(S(=O)(=O)Nc3ccccn3)cc2)c1
3,5.41,O=C(/C=C/Nc1ccccc1)c1ccc(NC(=S)Nc2ccc(S(=O)(=O)Nc3ccccn3)cc2)cc1
4,5.92,O=C(/C=C/Nc1ccc(F)cc1)c1cccc(NC(=S)Nc2ccc(S(=O)(=O)Nc3ccccn3)cc2)c1
5,5.64,O=C(/C=C/NCc1ccccc1)c1ccc(NC(=S)Nc2ccc(S(=O)(=O)Nc3ccccn3)cc2)cc1
6,5.33,O=C(/C=C/Nc1ccccc1)c1cccc(NC(=S)Nc2ccc(S(=O)(=O)Nc3ccccn3)cc2)c1
7,5.85,O=C(/C=C/Nc1ccccc1O)c1ccc(NC(=S)Nc2ccc(S(=O)(=O)Nc3ccccn3)cc2)cc1
8,6.36,O=C(/C=C/Nc1ccccc1Cl)c1ccc(NC(=S)Nc2ccc(S(=O)(=O)Nc3ccccn3)cc2)cc1
9,6.18,CCOC(=O)c1ccc(N/C=C/C(=O)c2ccc(NC(=S)Nc3ccc(S(=O)(=O)Nc4ccccn4)cc3)cc2)cc1
10,6.92,CCOC(=O)N/C=C/C(=O)c1ccc(NC(=S)Nc2ccc(S(=O)(=O)Nc3ccccn3)cc2)cc1
11,6.24,Cc1ccc(C(=O)O)c(N/C=C/C(=O)c2ccc(NC(=S)Nc3ccc(S(=O)(=O)Nc4ccccn4)cc3)cc2)c1
12,5.80,Cc1ccc(N/C=C/C(=O)c2cccc(NC(=S)Nc3ccc(S(=O)(=O)Nc4ccccn4)cc3)c2)c(C(=O)O)c1
13,6.38,O=C(/C=C/Nc1ccc(F)cc1)c1ccc(NC(=S)Nc2ccc(S(=O)(=O)Nc3ccccn3)cc2)cc1
14,5.46,CN(C)/C=C/C(=O)c1ccc(NC(=S)Nc2ccc(S(=O)(=O)Nc3ccccn3)cc2)cc1
15,5.51,O=C(/C=C/Nc1ccccn1)c1ccc(NC(=S)Nc2ccc(S(=O)(=O)Nc3ccccn3)cc2)cc1
16,4.97,COC(=O)c1c(N/C=C/C(=O)c2cccc(NC(=S)Nc3ccc(S(=O)(=O)Nc4ccccn4)cc3)c2)sc(C)c1C
17,5.10,Cc1c(N/C=C/C(=O)c2ccc(NC(=S)Nc3ccc(S(=O)(=O)Nc4ccccn4)cc3)cc2)c(=O)n(-c2ccccc2)n1C
18,5.82,CCOC(=O)c1ccc(N/C=C/C(=O)c2cccc(NC(=S)Nc3ccc(S(=O)(=O)Nc4ccccn4)cc3)c2)cc1
19,5.16,CC(=O)c1ccc(NC(=S)Nc2ccc(S(=O)(=O)Nc3ccccn3)cc2)cc1
20,4.94,Cc1c(N/C=C/C(=O)c2cccc(NC(=S)Nc3ccc(S(=O)(=O)Nc4ccccn4)cc3)c2)c(=O)n(-c2ccccc2)n1C
21,6.54,COC(=O)/C=C(/C)N/C=C/C(=O)c1ccc(NC(=S)Nc2ccc(S(=O)(=O)Nc3ccccn3)cc2)cc1
22,5.26,O=S(=O)(Nc1ccccn1)c1ccc(N=C=S)cc1
23,5.21,COC(=O)c1c(N/C=C/C(=O)c2ccc(NC(=S)Nc3ccc(S(=O)(=O)Nc4ccccn4)cc3)cc2)sc(C)c1C
24,6.30,O=C(/C=C/Nc1ccccc1Cl)c1cccc(NC(=S)Nc2ccc(S(=O)(=O)Nc3ccccn3)cc2)c1
25,5.30,CC(=O)c1cccc(NC(=S)Nc2ccc(S(=O)(=O)Nc3ccccn3)cc2)c1
26,5.26,CN(C)/C=C/C(=O)c1cccc(NC(=S)Nc2ccc(S(=O)(=O)Nc3ccccn3)cc2)c1
27,5.60,O=C(/C=C/NCc1ccccc1)c1cccc(NC(=S)Nc2ccc(S(=O)(=O)Nc3ccccn3)cc2)c1
28,5.33,O=C(/C=C/Nc1ccccn1)c1cccc(NC(=S)Nc2ccc(S(=O)(=O)Nc3ccccn3)cc2)c1
29,5.82,COC(=O)/C=C(/C)N/C=C/C(=O)c1cccc(NC(=S)Nc2ccc(S(=O)(=O)Nc3ccccn3)cc2)c1
30,5.97,CNC(=O)c1cc(Oc2ccc(NC(=O)Nc3ccc(Cl)c(C(F)(F)F)c3)cc2)ccn1 [SORAFENIB]

# System: HepG2
# Experiment: cells
# Details: Homo sapiens, HepG2, light or radiation study
# Description: Phototoxicity against human HepG2 cells assessed as reduction in cell viability pretreated for 2 hrs followed by 8 Gy gamma irradiation for 17.73 mins measured after 48 hrs by MTT assay
row,pIC50,Structure (SMILES)
1,6.60,O=C(/C=C/Nc1ccccc1Cl)c1ccc(NC(=S)Nc2ccc(S(=O)(=O)Nc3ccccn3)cc2)cc1
2,6.41,CCOC(=O)c1ccc(N/C=C/C(=O)c2ccc(NC(=S)Nc3ccc(S(=O)(=O)Nc4ccccn4)cc3)cc2)cc1
3,7.15,CCOC(=O)N/C=C/C(=O)c1ccc(NC(=S)Nc2ccc(S(=O)(=O)Nc3ccccn3)cc2)cc1
4,6.52,Cc1ccc(C(=O)O)c(N/C=C/C(=O)c2ccc(NC(=S)Nc3ccc(S(=O)(=O)Nc4ccccn4)cc3)cc2)c1
5,6.64,O=C(/C=C/Nc1ccc(F)cc1)c1ccc(NC(=S)Nc2ccc(S(=O)(=O)Nc3ccccn3)cc2)cc1
6,6.80,COC(=O)/C=C(/C)N/C=C/C(=O)c1ccc(NC(=S)Nc2ccc(S(=O)(=O)Nc3ccccn3)cc2)cc1
